In publication PMC12454639, “Direct disassembly of α-syn preformed fibrils into α-syn monomers by an all-D-peptide” (NPJ Parkinson's Disease, 2025):
“Also recorded” adds a separate entry of the source. Square brackets hold non-standard residues; d marks the D form. Peptide text beside a SMILES is read from it.

Experiments:
[1] = tested on: 15N-labeled full-length acetyl-α-syn; test: 1H-15N HSQC NMR; format: binding
Method: Samples were prepared at final concentrations of 25 µM ^15N-labeled full-length acetyl-α-syn in the absence (reference) and presence of an equimolar amount of SVD-1a (not isotopically labeled, thus NMR-invisible) in PBS buffer, pH 7.4, with an addition of 5% D2O for internal reference. 2D 1H-15N HSQC spectra were recorded back-to-back, on a Bruker AVANCE NEO spectrometer (Bruker, USA) operating at 1200 MHz proton Larmor frequency. The experimental temperature was 10 °C. Spectral dimensions were 16.02 ppm (^1H) x 30 ppm (^15N), with 2048 points in the ^1H dimension and 256 increments in the ^15N dimension, resulting in an acquisition time of 53 ms for the ^1H dimension and 35 ms for the ^15N dimension. For each increment, 32 scans were recorded, with a recovery delay of 1 s between scans, resulting in an overall experimental time of […] per spectrum.
NMR data sets were processed using the Bruker TopSpin software (version 4.1.1) and visualized using CcpNmr Analysis (v2.4.2)[59]. For the assessment of chemical shift changes of α-syn resonances in the presence of SVD-1a relative to the reference spectrum (without SVD-1a), peak positions were extracted using the CcpNmr Analysis software. From the residue-specific chemical shift changes in the ^1H and ^15N dimensions, an absolute chemical shift change, Δδ, was calculated using the formula Δδ = 0.5δH2+0.14δN2 [60]. […]

α-syn monomer = test: CD secondary structure analysis of de novo aggregation; format: biochemical; settings: 10 µM α-syn + 20 µM SVD-1a (two-fold molar excess), 7 days
Method: Fig. 7 De novo aggregation analysis of α-syn in the presence and absence of SVD-1a. A De novo ThT assay of 10 µM α-syn with and without 20 µM SVD-1a. ThT fluorescence progression was measured in a 96-well non-binding half-area plate (Corning, USA) with a FLUOStar plate reader (BMG labtech, GE) at λex = 448 nm and λem = 482 nm with 300 rpm continuous orbital shaking between reads. For induction of aggregation, one borosilicate bead per well was added (d = 3 mm, Hilgenberg, GE). Data are shown as mean values with ±SD (n = 5). B CD secondary structure analysis of de novo aggregation samples. Samples were incubated as described in (A) without added ThT (n = 3) and subsequently pooled for CD analysis. Far-UV ellipticity of the samples was measured in a quartz cuvette (l = 10 mm) in a J-1100 CD-spectrometer (Jasco, GE). In addition to (A), a sample with 20 µM SVD-1a alone was incubated under identical conditions and later used as a reference for the sample with α-syn and SVD-1a. For this sample (α-syn + SVD-1a (after incubation)), the SVD-1a reference subtracted CD spectrum is shown. […] D α-Syn in the flow through (MWCO < 100 kDa) was quantified using an α-syn specific ELISA (BioLegend, Human α-Synuclein (Colorimetric), 448607, n = 3). E Retentate and flow-through samples were analyzed using SDS–PAGE with silver staining. […]

SMILES: CC[C@@H](C)[C@@H](NC(=O)[C@@H](Cc1c[nH]cn1)NC(=O)[C@@H](CCC(=O)O)NC(=O)[C@@H](CCC(N)=O)NC(=O)[C@@H](Cc1c[nH]c2ccccc12)NC(=O)[C@@H](Cc1ccc(O)cc1)NC(=O)[C@H](NC(=O)[C@@H](CCC(=O)O)NC(=O)[C@@H](Cc1c[nH]cn1)NC(=O)[C@H](NC(=O)[C@H]1CCCN1C(=O)[C@@H](CC(C)C)NC(=O)[C@H](N)CCCNC(=N)N)[C@H](C)O)[C@H](C)O)C(=O)N[C@H](Cc1c[nH]c2ccccc12)C(=O)N[C@H](Cc1c[nH]cn1)C(=O)N[C@H](C)C(=O)N[C@H](CCCNC(=N)N)C(=O)N[C@H](CCCNC(=N)N)C(=O)N[C@H](CCCNC(=N)N)C(=O)N[C@H](CCCNC(=N)N)C(=O)N[C@H](CCCNC(=N)N)C(N)=O [SVD-1a] (H-[dR][dL][dP][dT][dH][dE][dT][dY][dW][dQ][dE][dH][dI][dW][dH][dA][dR][dR][dR][dR][dR]-NH2)
- NMR chemical shift changes of α-syn ([1]; 25 µM 15N-α-syn + 25 µM SVD-1a, PBS pH 7.4, 10 °C, 1200 MHz): the chemical shift changes are very small, with most residues showing significant chemical shift changes located in the C-terminal region
- precipitation of α-syn in NMR sample ([1]; 25 µM α-syn with 25 µM SVD-1a, 4.8 h at 10 °C): did not yield any signs of signal loss due to precipitation
- α-syn secondary structure after de novo aggregation (CD) (α-syn monomer): no spectrum shift towards a beta-sheet spectrum was observed; also recorded: fully stabilizes monomeric α-syn in its random coil secondary structure after 7 days of incubation
